This passage reports Ki results from patent US10381110B2, “Molecules” (University of Dundee, priority 2010, dated 2019).

The target of this test is T1, 5-HT2C (Homo sapiens, UniProt P28335).
T1 sequence (P28335 33-458): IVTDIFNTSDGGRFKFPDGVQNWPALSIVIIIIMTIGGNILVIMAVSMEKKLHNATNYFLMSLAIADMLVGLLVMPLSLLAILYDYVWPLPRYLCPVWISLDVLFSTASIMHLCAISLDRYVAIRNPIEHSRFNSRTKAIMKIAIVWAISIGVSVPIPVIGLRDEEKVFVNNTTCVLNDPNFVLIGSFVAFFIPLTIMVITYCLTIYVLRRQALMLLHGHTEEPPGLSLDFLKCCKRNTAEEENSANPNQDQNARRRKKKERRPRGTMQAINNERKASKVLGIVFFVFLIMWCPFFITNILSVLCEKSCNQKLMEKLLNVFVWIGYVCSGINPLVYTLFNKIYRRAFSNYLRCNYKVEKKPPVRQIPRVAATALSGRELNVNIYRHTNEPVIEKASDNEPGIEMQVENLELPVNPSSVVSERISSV
Description: Secondary radioligand binding assay (Ki).
Description: Assay Buffer: Standard Binding Buffer (50 mM Tris-HCl, 10 mM MgCl2, 1 mM EDTA, pH 7.4)
Membrane Fraction Source: Transiently or stably transfected cell lines (e.g., HEK293, COS, CHO, NIH3T3)
Radioligand is diluted to five times the assay concentration (see Table 18) in Standard Binding Buffer. Typically, the assay concentration of radioligand is a value between one half the KD and the KD of a particular radioligand at its target. 50 μl aliquots of radioligand are dispensed into the wells of a 96-well plate containing 100 μl of Standard Binding Buffer. Then, duplicate 50 μl aliquots of the test and reference compound dilutions are added.
The 250 μl reactions are incubated at room temperature and shielded from light (to prevent photolysis of light-sensitive ligands) for 1.5 hours, then harvested by rapid filtration onto Whatman GF/B glass fiber filters pre-soaked with 0.3% polyethyleneimine using a 96-well Brandel harverster. Four rapid 500 μl washes are performed with chilled Standard Binding Buffer to reduce non-specific binding. Filters are placed in 6 ml scintillation tubes and allowed to dry overnight. […] The tubes are capped, labeled, and counted by liquid scintillation counting. […] The filter mats are dried, then scintillant is melted onto the filters and the radioactivity retained on the filters is counted in a Microbeta scintillation counter. […]

What is called Ki is a measure of affinity in units of concentration, obtained from inhibition or displacement. Low readings indicate tighter binding, high ones weaker binding. Compound `COc1cc2c(cc1OC)C(=O)N(CCCCN1CCN(c3ccccc3OC)CC1)C2` [GFR-VII-285] returned a Ki of 3.43 µM.
